Data taken from US9486447B2, “Compositions and methods for controlling neuronal excitation” (The General Hospital Corporation, priority 2011, dated 2016).

Assays:
[1] = system: larvae and adult zebrafish; test: Long-term toxicity testing in zebrafish; format: in vivo
Protocol: Optovin is a rhodanine-containing small molecule with no previously annotated biological activity (FIG. 1D). […] Motor behavior in optovin-treated animals is elicited by radiation stimulus intensitites greater than 1.6 μW/mm^2 (FIG. 1G). […] To determine the long-term effects of optovin exposure on development, behavior and survival, the development, behavior and survival of larvae and adult zebrafish exposed to optovin (10 μM) for 96 hours were analyzed. […] Thus, optovin is a novel behavior-modifying compound that causes rapid and reversible motor excitation in response to violet light stimuli.
To determine the long-term effects of optovin exposure on development, behavior and survival, the development, behavior and survival of larvae (n=150) and adult zebrafish (n=2) exposed to 10 μM optovin for 96 hours was analyzed.

[2] = system: dorsal root ganglia (DRG) sensory neurons; test: Calcium imaging of DRG sensory neurons; format: cell-based, mouse
Protocol: To determine if optovin acts on sensory neurons, the activity of treated and untreated dorsal root ganglia (DRG) sensory neurons isolated from wild type mice were compared. […] TRPA1 channels play important roles in detecting chemical, thermal, and mechanical stimuli in a variety of organisms^34,35.
C57Bl/6 male mice (3-4 weeks old) were decapitated and DRG were dissected into 4° C. Hank's Balanced Salt Solution (HBSS; Gibco), then neurons were dissociated using collagenase (1 mg/mL; Worthington) and dispase (5 mg/mL; Gibco) dissolved in HBSS. Neurons were plated in Neurobasal-A medium (Invitrogen), supplemented with B-27 Supplement (Gibco), L-glutamine (Gibco), and penicillin-streptomycin (Gibco). The neurons were plated onto coverslips coated with 0.1 mg/mL poly-D-lysine (Sigma) and 5 μg/mL laminin (Sigma). After 24 h, neurons were washed with assay buffer (HBSS, supplemented with 9 mM HEPES, 11 mM D-glucose, 0.1% fatty-acid free BSA, pH 7.3) and incubated for 1 h with 2 μM Fura2-AM (Invitrogen) with 0.2% pluronic (Invitrogen) in assay buffer in the dark at room temperature. The neurons were then washed with assay buffer and allowed to equilibrate at room temperature for 30 min prior to imaging. After a 120 s baseline perfusion of assay buffer containing 3.3% DMSO, 100 μM optovin dissolved in the DMSO-assay buffer solution, or the DMSO-assay buffer solution alone as a control, was perfused onto the neurons for a period of 1 min. Fura-2 is activated with UV-light, and the process of imaging Fura-2 was enough to activate the optovin. […] Following this one-minute period, cells were perfused with DMSO-assay buffer to remove the agonist, which was followed by addition of 100 μM mustard oil (in DMSO-assay buffer) to determine the total number of TrpA1-expressing neurons present. Images were acquired on a Nikon Eclipse Ti microscope (Nikon, Melville, N.Y.).

adult zebrafish = test: 405 nm laser illumination of adult and spinalized zebrafish; format: in vivo
Protocol: Optovin's capacity to function in intact adult animals will impact its suitability for future clinical and research applications. Thus, the effects of 405 nm laser illumination on optovin-treated adult zebrafish were analyzed. […] To determine if fin contraction was voluntary or involuntary, the experiment was repeated using spinalized preparations. Optical control of dorsal fin contraction was preserved in spinalized animals treated with optovin (data not shown). Furthermore, carefully controlled laser illumination of specific regions along the body of spinalized zebrafish produced specific dorsal, ventral, and lateral tail movements reminiscent of those used by intact fish during swimming (data not shown). Because zebrafish TRPA1 is primarily expressed in sensory neurons, these contractions and swimming behaviors likely occur via activation of spinal reflex arcs.
Adult zebrafish (0.5-1.5 years) were briefly anesthetized in ice water and quickly decapitated with a sharp razor blade. Spinalized preparations were incubated in optovin (50 μM) for 1-2 min prior to testing with laser light stimuli (405 nm, 400 μW mm−2).

SMILES: Cc1cc(/C=C2/SC(=S)NC2=O)c(C)n1-c1cccnc1 [optovin]
- differences in appearance, touch response, heart rate, fin movements, morphology or percentage survival vs untreated ([1]; 10 μM for 96 hours, larvae and adult zebrafish): No differences were identified
- survival rates ([1]; 10 μM, larval or adult zebrafish): does not affect survival rates
- signs of toxicity ([1]; after 48 hours of treatment): No signs of toxicity were observed
- activation of DRG neurons with light ([2]; 100 μM optovin, illuminated (Fura-2 imaging)): strongly activated
- activation of DRG neurons in the dark ([2]; optovin treatment in the dark): did not occur
- dorsal fin response to 405 nm laser illumination (adult zebrafish; intact adult zebrafish): rapid and reversible contraction of the fin
- optical control of dorsal fin contraction (adult zebrafish; spinalized animals): preserved
